Earlier results, collected in patent US9295653B2, “Controlled agglomeration” (Veloxis Pharmaceuticals A/S, priority 2001, dated 2016).
Structures can show the parent of a compound that is named as a salt.

Settings: Table 1, Poorly-Soluble Drug Candidates; descriptive term

SMILES | Solubility In Water
CC(=O)N1CCN(c2ccc(OCC3COC(Cn4ccnc4)(c4ccc(Cl)cc4Cl)O3)cc2)CC1 (stereo not drawn) [Ketoconazole] | Insoluble
COc1ccc2cc(CCC(C)=O)ccc2c1 [Nabumetone] | Insoluble
NC(=O)N1c2ccccc2C=Cc2ccccc21 [Carbamazepine] | Insoluble
COc1ccc2[nH]c([S+]([O-])Cc3ncc(C)c(OC)c3C)nc2c1 (stereo not drawn) [Omeprazole] | Slightly
Cc1cccc(Nc2ccccc2C(=O)O)c1C [Mefenamic acid] | Slightly
CN1C(C(=O)Nc2ccccn2)=C(O)c2ccccc2S1(=O)=O [Piroxicam] | Sparingly
CN1CCCC(n2nc(Cc3ccc(Cl)cc3)c3ccccc3c2=O)CC1 (stereo not drawn) [Azelastine] | Insoluble
OCCN(CCO)c1nc(N2CCCCC2)c2nc(N(CCO)CCO)nc(N3CCCCC3)c2n1 [Dipyridamole] | Slightly
CC(CCc1ccc(O)cc1)NCCc1ccc(O)c(O)c1 (stereo not drawn) [Dobutamine] | Sparingly
CC1=C(/C=C/C(C)=C/C=C/C(C)=C\C(=O)O)C(C)(C)CCC1 [Isotretinoin] | Insoluble
CC[C@H](C)C(=O)O[C@H]1C[C@@H](C)C=C2C=C[C@H](C)[C@H](CC[C@@H]3C[C@@H](O)CC(=O)O3)[C@H]21 [Lovastatin] | Insoluble
C[C@@](Cc1ccc(O)c(O)c1)(NN)C(=O)O [Carbidopa] | Slightly
CC(C(=O)O)c1ccc(-c2ccccc2)c(F)c1 (stereo not drawn) [Flurbiprofen] | Slightly
O=C1NC(=O)C(c2ccccc2)(c2ccccc2)N1 [Phenytoin] | Insoluble
COC(=O)C1=C(C)NC(C)=C(C(=O)OC(C)C)C1c1cccc2nonc12 (stereo not drawn) [Isradipine] | Insoluble
Cc1c(OCC(F)(F)F)ccnc1C[S+]([O-])c1nc2ccccc2[nH]1 (stereo not drawn) [Lansoprazole] | Insoluble

Same assay, conditions: Table 2, Poorly-Soluble Drugs with Low Bioavailability; descriptive term

SMILES | Solubility In Water
COc1ccc2cc(CCC(C)=O)ccc2c1 [Nabumetone] | Insoluble
CC[C@H](C)C(=O)O[C@H]1C[C@@H](C)C=C2C=C[C@H](C)[C@H](CC[C@@H]3C[C@@H](O)CC(=O)O3)[C@H]21 [Lovastatin] | Insoluble
COC(=O)C1=C(C)NC(C)=C(C(=O)OC(C)C)C1c1cccc2nonc12 (stereo not drawn) [Isradipine] | Insoluble
CC(=O)S[C@@H]1CC2=CC(=O)CC[C@]2(C)[C@H]2CC[C@@]3(C)[C@@H](CC[C@@]34CCC(=O)O4)[C@H]12 [Spironolactone] | Insoluble

Settings: Table 2; figure in brackets after 'Low'

SMILES | Bioavailability
COc1ccc2cc(CCC(C)=O)ccc2c1 [Nabumetone] | Low (35%)
COc1cc(N)c(Cl)cc1C(=O)NC1CCN(CCCOc2ccc(F)cc2)CC1OC (stereo not drawn) [Cisapride] | Low (35-40%)
CCCC1O[C@@H]2C[C@H]3[C@@H]4CCC5=CC(=O)C=C[C@]5(C)[C@H]4[C@@H](O)C[C@]3(C)[C@]2(C(=O)CO)O1 (stereo partly drawn) [Budesonide] | Low (~15%)
O=[N+]([O-])O[C@H]1CO[C@H]2[C@@H]1OC[C@H]2O[N+](=O)[O-] [Isosorbide dinitrate] | Low (20-35%)
CC(=O)S[C@@H]1CC2=CC(=O)CC[C@]2(C)[C@H]2CC[C@@]3(C)[C@@H](CC[C@@]34CCC(=O)O4)[C@H]12 [Spironolactone] | Low (25%)

Same assay, conditions: in vivo

SMILES | Bioavailability
CCCCCc1cc(O)c2c(c1)OC(C)(C)[C@@H]1CCC(C)=C[C@@H]21 [Dronabinol] | Low 10-20%)
CN1CCC[C@@H]1CCO[C@](C)(c1ccccc1)c1ccc(Cl)cc1 [Clemastine fumarate] | Low (~39%)
Nc1ccc(O)c(C(=O)O)c1 [Mesalamine] | Low (~20%)
OC(CCN1CCCCC1)(c1ccccc1)C1CC2C=CC1C2 (stereo not drawn) [Biperiden] | Low (29-33%)
CCOC(=O)C1=C(C)NC(C)=C(C(=O)OC)C1c1cccc(Cl)c1Cl (stereo not drawn) [Felodipine] | Low (15%)
CC1CC(OC(=O)C(O)c2ccccc2)CC(C)(C)C1 (stereo not drawn) [Cyclandelate] | Low
OCCN1CCN(CCCN2c3ccccc3Sc3ccc(C(F)(F)F)cc32)CC1 [Fluphenazine] | Low (2-3%)
CN[C@H]1CC[C@@H](c2ccc(Cl)c(Cl)c2)c2ccccc21 [Sertraline] | Low (<44%)
COc1ccc(CCN2CCC(Nc3nc4ccccc4n3Cc3ccc(F)cc3)CC2)cc1 [Astemizole] | Low-moderate
OCCN1CCN(CCCN2c3ccccc3Sc3ccc(Cl)cc32)CC1 [Perphenazine] | Low
C#C[C@]1(O)CC[C@H]2[C@@H]3CCC4=Cc5oncc5C[C@]4(C)[C@H]3CC[C@@]21C [Danazol] | Low
NC(N)=Nc1nc(CSCCC(N)=NS(N)(=O)=O)cs1 [Famotidine] | Low (39-50%)
COC(=O)C1=C(C)NC(C)=C(C(=O)OC(C)C)C1c1cccc2nonc12 (stereo not drawn) [Isradipine] | Low (15-24%)
CC(=O)OC[C@H]1O[C@@H]([S-])[C@H](OC(C)=O)[C@@H](OC(C)=O)[C@@H]1OC(C)=O.CCP(CC)CC.[Au+] [Auranofin] | Low (15-25%)
C[C@]12CC[C@H]3[C@@H](CCC4=CC(=O)CC[C@@]43C)[C@@H]1CC[C@@H]2O [Testosterone] | Low
CCn1cc(C(=O)O)c(=O)c2cc(F)c(N3CCNCC3)cc21 [Norfloxacin] | Low (30-40%)
